{
  "source": "patent US20150344535A1",
  "about": "“NEUROTROPHIN-TYROSINE KINASE RECEPTOR SIGNALING” (THE UNIVERSITY OF QUEENSLAND, priority 2012, published 2015)",
  "key": {"PC12 cells [1]": {"test_system": "PC12 cells", "test": "PC12 cell neurite outgrowth in response to NGF", "format": "cell-based", "conditions": "NGF plus secretase inhibitor over 5 days"}, "PC12 cells [2]": {"test_system": "PC12 cells", "test": "PC12 cell neurite outgrowth in response to EGF", "format": "cell-based", "conditions": "EGF plus secretase inhibitor, 5 days", "procedure": "(§1) To assess the effect of p75^NTR constructs (FIG. 2) or c29 peptide on TrkA-mediated neuritogenesis, transfected PC12 cells were grown in the presence of 100 ng/ml NGF for 3 days, with fresh medium and NGF treatments added on day 2. Cells were then imaged live on an Olympus (IX81) microscope fitted with a CO2 atmospheric chamber, using analySIS software. Four random images of 80-100 cells were taken for each treatment condition and images were determined by measuring polygon neurite length of all cells in each image. Data analysis was performed using Graphpad PRISM.\nTo determine whether the effect of the c29 peptide on enhancement of neurite outgrowth was NGF and TrkA specific, we repeated the experiment using EGF to stimulate differentiation."}, "TrkA": {"test_system": "TrkA", "test": "Biotinylated peptide pull down of TrkA", "format": "binding", "conditions": "TrkA pull downs, FIG. 15F", "procedure": "For peptide pull down assays, the biotinylated c29 or LC1 control peptides were incubated with protein A-sepharose beads or Dynabeads MyOne Streptavidin T1 (Invitrogen) overnight at 4° C. Cell lysates were then added to the peptide-protein A-sepharose complex or Dynabeads MyOne Streptavidin T1 and incubated for 3 hours at 4° C. Peptide-receptor complexes were washed extensively with RIPA lysis buffer and eluted by boiling in Laemmli sample buffer. For p75^NTR construct immunoprecipitations, HEK293 cells were treated with NGF at 50 ng/ml for 10 minutes 48 hours after transfection with 1 μg DNA per well. Cells were immediately harvested in ice-cold phosphate buffered saline (PBS) and washed twice, then lysed in 1 ml of lysis buffer. Cell lysates were pre-cleared in 75 μl (1:2) protein-G sepharose: PBS by rotation end-over-end for 2 hours at 4′C. Lysates were then incubated with 3-5 μg antibody, either mouse-anti-YFP/GFP (Roche) or rabbit-anti-human p75^NTR intracellular domain antibody (Promega), and rotated end-over-end for 2 hours at 4° C.\n(§2) Immunoprecipitation was performed by the addition of 75 μl (1:2) protein-G sepharose: PBS and incubation end-over-end for 16 hours at 4° C. The immunoprecipitate was washed 4 times with 1 ml of PBS then eluted in 60 μl 2×LDS sample buffer. For immunoblotting, samples were boiled for 5 minutes, separated by SDS-PAGE and transferred onto nitrocellulose membranes, then western blotted using standard protocols (see Example 1 for antibodies used).\nThe c29 peptide was labelled with biotin and attached to a sepharose bead column. Lysates from cells was passed over the column followed by several wash steps. The proteins that bound to the c29 peptide (proteins that are pulled down) were eluted from the column with SDS buffer and separated in size by SDS-PAGE electrophoresis. The gel was Western blotted and the membrane probed with antibodies to proteins of interest."}, "PC12 cells [3]": {"test_system": "PC12 cells", "test": "PC12 cell neurite outgrowth in response to NGF", "format": "cell-based", "conditions": "for neurite growth: fragments incubated with PC12 cells and NGF, FIG. 16", "procedure": "as §1\nOnce PC12 cells are fully differentiated, they become dependent on NGF for survival (Greene, 1978), but can survive if grown in the presence of lower concentrations of NGF (Greene and Tischler, 1976). To determine if c29 could potentiate TrkA-mediated signals, PC12 cells were cultured in the presence of NGF concentrations ranging from 1-100 ng/ml for 5 days, following serum starvation and pre-incubation with c29, scrambled control peptide or no peptide (FIG. 5A). […] Peptides (1 μM) were added to the cultures every 48 hours at the time of NGF addition and medium exchange."}, "TrkA and p75^NTR": {"test_system": "TrkA and p75^NTR", "test": "Surface biotinylation of receptors in PC12 cells", "format": "cell-based", "conditions": "1 μM peptide, with or without NGF", "procedure": "FIG. 10: The juxtamembrane domain of p75^NTR increases the association of NGF to cells expressing TrkA. (A and B) Dose response graphs of the proportion (%) of PC12 cells with fluorescence intensity above background following treatment with 26 […] NGFFITC, a FITC-conjugated antibody to the extracellular domain of p75^NTR (A), or an antibody to TrkA (detected using an anti-rabbit Alexa 594 secondary) (B), after pretreatment with increasing concentrations of […] peptide. (n=3 experiments per data point; mean±SEM *p<0.05, **p<0.01) (C) Representative western blots (WB) of TrkA and p75^NTR present in streptavidin precipitates (surface biotin), or lysate flow through of PC12 cells that had been treated for 1 hour with NGF and/or c29 and scrambled (SC) peptide, prior to the surface proteins being labelled with biotin for 90 minutes on ice."}, "p75^FL": {"test_system": "p75^FL", "test": "Production of endogenous p75^CTF or p75^ICD fragments in p75^FL-transfected HEK293 cells", "format": "cell-based", "conditions": "vs untreated cells, data not shown"}, "PC12 cells [4]": {"test_system": "PC12 cells", "test": "NGF-FITC binding by flow cytometry, PC12 cells", "conditions": "NGF-FITC, c.f. PC12", "procedure": "The NGF was conjugated to FITC by standard methods and detailed flow cytometry acquisition and analysis. For NGF-FITC conjugation 400 μg βNGF in 200 μl pH 8.5 NaHCO3 buffer was mixed with 5-10 μl of 10 mg/ml FITC in 100 μl DMSO for 10 hours at 4° C. on an orbital shaker set to 100 rpm. The excess FITC was removed by dialysis against 3 changes of 5 L of 10 mM Tris, 150 mM NaCl, 0.2% acetic acid, pH 8.2 for 24 hours at 4° C. Conjugate F/P characterization was determined by measuring absorbance at 280 nm and 495 nm according to manufacturer's instructions. Biological activity of the NGF-FITC conjugate was tested by performing PC12 cell neurite outgrowth assays unlabelled NGF, and comparing the levels of neuritogenesis. NGF-FITC conjugates were used within 4 weeks of synthesis.\nFor the flow cytometry NGF binding assays, fluorescence cell parameters of at least 20,000 events for PC12 cells and 100,000 events for HEK293 cells were acquired by flow cytometry list mode and measurements were performed on a single cell basis (with compensation for double event counting). Dead cells and debris were gated out of the analysis on the basis of forward scatter fluorescence, and mean, median and maximal fluorescence values of the gated cell populations were analysed using FACS Diva Software (Becton-Dickinson Biosciences) and FACS Express Software (Becton-Dickinson Biosciences).\n(§3) Background fluorescence of HEK293 cells was non-transfected cells (±c29 or scrambled peptide treatment) treated with 26 nM NGF-FITC. For PC12 cells, the control population was cells that had not been treated with NGF-FITC. Analysis of real-time NGF-FITC receptor binding experiments was performed on 550,000-600,000 cells at 4° C. in serum free NB medium and binding kinetics were calculated from raw data files compressed to 50,000 binding events using FlowJo and MatLab Software. Data was plotted with the use of GraphPad Prism.\n(§4) Only NGF-FITC preparations that promoted equivalent neurite outgrowth of PC12 cells to that of unlabelled NGF were used in binding experiments. To investigate NGF binding, PC12 or transfected HEK293 cells were serum starved for 4 hours, harvested, washed with Dulbecco's Modified Eagle Medium (DMEM), and counted. When used, c29 or scrambled peptide were added to cultures for the third hour of the serum starvation procedure. 1×10^7 cells/ml suspended in 500 μl of serum-free DMEM were incubated with 26 nM NGF-FITC on ice for 60 minutes before analysis. For binding competition assays, following 1 hour in NGF-FITC, cells were washed with ice-cold PBS containing 0.1% normal bovine serum and incubated on ice with unlabeled NGF at concentrations ranging from 100 pM to 10 μM for 30 minutes, then washed twice in PBS before being analysed on a BD Flow Cytometer FACS Scan (Becton-Dickinson).\nFirst, to determine the concentration of c29 required to modulate NGF binding, c29 levels were titrated with a fixed concentration of NGF-FITC."}, "pErk1/2 and pAkt": {"test_system": "pErk1/2 and pAkt", "test": "Western blot of pErk1/2 and pAkt in PC12 cell lysates", "format": "cell-based", "conditions": "absence of NGF, 24 hours", "procedure": "In biochemical experiments, PC12 and HEK293 cells were lysed for 20 minutes on ice in lysis buffer as described by (Ceni et al., 2010). Briefly, the lysis buffer contained 10 mM Tris-HCl, 150 mM NaCl, 2 mM EDTA, 1% (v/v) NP-40, 1% (v/v) TX-100, 10% Glycerol, 1 mM PMSF, 1 mM Sodium Orthovanadate, 1 μM BB94, 1% (v/v) Roche protease inhibitor cocktail and pH 8.0 (Ceni et al., 2010).\nas §2\nThe observed functional effects on neurite outgrowth and survival were next correlated with enhanced activation of signal transduction pathways that mediate the trophic effects of TrkA. Lysates of cells treated for 24 hours with NGF alone or in combination with c29 or scrambled peptide were immunoblotted for pErk1/2 (neurite outgrowth), and the serine/threonine protein kinase Akt (survival). […] Total levels of Erk1/2 or Akt were unaffected by any treatment (FIG. 6 A, B)."}, "HEK293 cells": {"test_system": "HEK293 cells", "test": "NGF-FITC binding by flow cytometry, non-transfected HEK293 cells", "procedure": "as §3\nas §4, with “1×10^7 cells/ml suspended in 500 μl of serum-free DMEM were incubated with 26 nM NGF-FITC on ice for 60 minutes before analysis.” left out"}, "[5]": {"test_system": "primary E13 motor neurons", "test": "Primary motor neuron survival and growth factor withdrawal", "format": "cell-based, mouse", "conditions": "1 ng/ml BDNF plus NGF", "method": "Briefly, pregnant mothers were sacrificed by cervical dislocation and the uterus removed by Caesarean section and placed in Neurobasal medium. Lumbar spinal cords were dissected from E13 embryos on ice. Batches of 2 or 3 spinal cords were incubated in 1 mL 0.05% trypsin-ETDA for 10 minutes at 37° C. in 15 mL tubes. To prevent further trypsinisation, 0.14 mg/mL trypsin inhibitor solution was added and the tissue centrifuged at 100×g for 7 minutes, without acceleration or deceleration. The supernatant was removed and the spinal cord tissue was resuspended in 1 mL of Neurobasal Medium (NB). In order to obtain a single cell suspension, each batch of 2-3 spinal cords was agitated manually for 2 minutes. The suspension was allowed to settle and the supernatant collected after being filtered through a 100 μm sieve. The remaining tissue was further triturated ˜8 times through a P200 pipette and filtered through a 100 μm sieve. The combined supernatants were then separated by centrifugation on a 5 ml cushion of 9% (vol/vol) OptiPrep® gradient in NB containing 2% B27 supplement for 45 min at 850×g, without acceleration or deceleration. To prevent toxicity following Optiprep® separation, the layer containing MNs was harvested into 10 mL of NB containing 10% HS, and the cell suspension was centrifuged at 900×g for 7 minutes at 24° C., without acceleration or deceleration. The supernatant was removed and the cell pellet was resuspended in 1 mL of NB medium.\nThe number of viable motor neurons was counted on a haemocytometer using 0.08% trypan blue and neurons plated in 4-well culture dishes at a density of 3,000 cells per well in 100 μL NB containing 10% HS. […] Primary motor neurons were maintained at 37° C. in a humidified atmosphere with 5% CO2 and culture medium was replaced at day 1 and 3. Phase contrast images of motor neurons were taken using an Olympus (6IX81) microscope after motor neurons were grown in vitro for up to 7 days.\nTo assess the effects of c29 peptide on motor neuronal survival in limiting growth factor concentrations, isolated spinal motor neurons were plated and treated with 0.01, 0.1 or 1.0 ng/ml of BDNF in the presence of 1 μm PTD4-linked c29 or scrambled peptide, and cultured for 5 days with the addition of fresh BDNF and peptide treatments on day 2 and 4. For growth factor-withdrawal assays, following initial plating in 1 ng/ml of BDNF, CNTF or GDNF, cultures were washed four times with serum-free Neurobasal (NB) medium, after which the medium was replaced with medium containing 1-0.01 ng/ml of BDNF, CNTF or GDNF and 1 μM PTD4-linked c29 or scrambled peptides, as indicated. For assays investigating the effect of c29 on NGF-mediated motor neuron death, cultures were grown in 1 ng/ml BDNF, CNTF or GDNF for 1 day, before being treated with 100 ng/ml 2.5S NGF in and 1 μM PTD4-linked c29 or scrambled peptide, as indicated. Motor neurons were counted on day 1, and to assess the effects of various treatments days 3 and 5 (4 separate 10×10 grid fields of each well per experiment)."}},
  "data": [
    {"compound": "CC(C)C[C@H](CC(=O)NO)C(=O)N[C@H](C(=O)N[C@@H](C)C(=O)NCCN)C(C)(C)C", "note": "[TAPI-2, N—(R)-(2-(Hydroxyaminocarbonyl)Methyl)-4-Methylpentanoyl-L-t-Butyl-Glycine-L-Alanine 2-Aminoethyl Amide]", "values": [
      {"measurement": "neurite length", "setting": "PC12 cells [1]", "value": 20, "unit": "μm"},
      {"measurement": "PC12 cell differentiation induced by EGF", "setting": "PC12 cells [2]", "value": "neither the α- nor the γ-secretase inhibitor had any significant effect"}
    ]},
    {"compound": "C[C@H](NC(=O)Cc1cc(F)cc(F)c1)C(=O)N[C@H]1N=C(c2ccccc2)c2ccccc2N(C)C1=O", "note": "[compound E, (S,S)-2-[2-(3,5-Difluorophenyl)-acetylamino]-N-(1-methy-2-oxo-5-phenyl-2,3-dihydro-1H-benzo[e][1,4]diazepin-3-yl)-propionamide]", "values": [
      {"measurement": "neurite length", "setting": "PC12 cells [1]", "value": 20, "unit": "μm"},
      {"measurement": "PC12 cell differentiation induced by EGF", "setting": "PC12 cells [2]", "value": "neither the α- nor the γ-secretase inhibitor had any significant effect"}
    ]},
    {"compound": "(22-29): truncated peptide fragment of c29, residues 22-29 (PPPEGEKL)", "values": [
      {"measurement": "TrkA binding of biotinylated fragments", "setting": "TrkA", "value": "clearly bind TrkA"},
      {"measurement": "neurite growth", "setting": "PC12 cells [3]", "value": "stimulated neurite growth"}
    ]},
    {"compound": "ARWNSC [c1-6K1A]", "values": [
      {"measurement": "neurite growth", "setting": "PC12 cells [3]", "value": "stimulated neurite growth"}
    ]},
    {"compound": "KRWASA [c1-6C6A]", "values": [
      {"measurement": "neurite growth", "setting": "PC12 cells [3]", "value": "stimulated neurite growth"}
    ]},
    {"compound": "KRWASC [c1-6N4A]", "values": [
      {"measurement": "neurite growth", "setting": "PC12 cells [3]", "value": "stimulated neurite growth"}
    ]},
    {"compound": "KRWNSC (c1-6 - Fragment of p75ICD) [(1-6)]", "values": [
      {"measurement": "TrkA binding of biotinylated fragments", "setting": "TrkA", "value": "clearly bind TrkA"},
      {"measurement": "neurite growth", "setting": "PC12 cells [3]", "value": "stimulated neurite growth"}
    ]},
    {"compound": "KRWNSCKQNKQGAN (c1-14 - Fragment of p75ICD) [(1-14)]", "values": [
      {"measurement": "TrkA binding of biotinylated fragments", "setting": "TrkA", "value": "clearly bind TrkA"},
      {"measurement": "neurite growth", "setting": "PC12 cells [3]", "value": "stimulated neurite growth"}
    ]},
    {"compound": "SKGQVCRNQPGQNKPEPANKSWKETPLRN [SC, randomly scrambled version of c29, reference compound]", "values": [
      {"measurement": "surface or total receptor levels of TrkA and p75^NTR", "setting": "TrkA and p75^NTR", "value": "no significant difference"},
      {"measurement": "rate of production of endogenous p75^CTF or p75^ICD fragments", "setting": "p75^FL", "value": "did not differ significantly"},
      {"measurement": "% of cell population with FITC above background", "setting": "PC12 cells [4]", "value": "100.3 ± 5.1", "unit": "%"},
      {"measurement": "Maximal fluorescence per cell of the population", "setting": "PC12 cells [4]", "value": "100.4 ± 9.6", "unit": "%"},
      {"measurement": "Mean fluorescence per FITC-positive cell", "setting": "PC12 cells [4]", "value": "95.3 ± 7.4", "unit": "%"},
      {"measurement": "Median population fluorescence", "setting": "PC12 cells [4]", "value": "97.0 ± 3.8", "unit": "%"},
      {"measurement": "pAkt signalling", "setting": "pErk1/2 and pAkt", "value": "no effect"},
      {"measurement": "pErk1/2 signalling", "setting": "pErk1/2 and pAkt", "value": "no effect"},
      {"measurement": "fluorescence of nontransfected cells incubated with peptide and NGF-FITC", "setting": "HEK293 cells", "value": "only background levels of fluorescence"},
      {"measurement": "median neurite outgrowth", "setting": "PC12 cells [3]; 100 ng/ml NGF, day 5, peptide 1 μM, vs untreated cultures", "value": "no difference"},
      {"measurement": "NGF-induced cell death of motor neurons", "setting": "[5]", "value": "no effect"}
    ]},
    {"compound": "SRPVNQTPPPEGEKL (c15-29 - Fragment of p75ICD) [(15-29)]", "values": [
      {"measurement": "TrkA binding of biotinylated fragments", "setting": "TrkA", "value": "clearly bind TrkA"},
      {"measurement": "neurite growth", "setting": "PC12 cells [3]", "value": "stimulated neurite growth"}
    ]}
  ]
}
